These results are taken from ChEMBL document CHEMBL1154105, “Optimization of peptide-based inhibitors of prostate-specific antigen (PSA) as targeted imaging agents for prostate cancer” (Bioorg Med Chem, 2009).

Starred links: 1 amine or outer side, 2 acyl side, 3 side chain; linkers in the order of their positions; H or OH if unused. Non-standard residues stand in square brackets, D forms with d. Residues, ends and D or L forms follow the SMILES beside them. *: point of attachment. Ala(imidazol-2-yl) = N[C@@H](Cc1ncc[nH]1)C(=O)O; X2 = C[C@@H](C(=O)[*:2])N(c1ccc2ccccc2c1)[*:1]; Phe(4-Br) = N[C@@H](Cc1ccc(Br)cc1)C(=O)O; N(cHex)Ala = C[C@H](NC1CCCCC1)C(=O)O; Pro(3R-OH) = O=C(O)[C@H]1NCC[C@H]1O; hIle = CC[C@H](C)C[C@H](N)C(=O)O; Met(O) = CS(=O)CC[C@H](N)C(=O)O; boroLeu = CC(C)C[C@H](N*)B(O)O; NPhGly = O=C(O)CNc1ccccc1; Cbz = O=C(OCc1ccccc1)*; tBu = CC(C)(C)*

Assay [1] has as its target T1, Prostate-specific antigen (Homo sapiens, UniProt P07288).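 Note: Fluorescence-based readout of substrate cleavage by prostate-specific antigen, used to gauge enzyme inhibition.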
T1 sequence (P07288 whole entry): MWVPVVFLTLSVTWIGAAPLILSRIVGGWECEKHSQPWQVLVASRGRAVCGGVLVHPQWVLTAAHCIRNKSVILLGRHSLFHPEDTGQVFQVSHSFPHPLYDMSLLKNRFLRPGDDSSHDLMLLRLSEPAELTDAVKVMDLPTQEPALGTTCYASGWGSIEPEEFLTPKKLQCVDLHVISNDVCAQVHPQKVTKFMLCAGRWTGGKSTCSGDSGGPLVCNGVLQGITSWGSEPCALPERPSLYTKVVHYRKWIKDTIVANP
Put plainly: biochemical. The class given is tissue-based, Prostate gland.
Description: Inhibition of prostate-specific antigen assessed as substrate hydrolysis by fluorescence assay

Assay [2] is described as follows: Selectivity ratio of Ki for chymotrypsin to Ki for prostate-specific antigen. The note with it: Prostate gland.

Turning to `CC(C)C[C@@H](C=O)NC(=O)[C@H](Cc1ccc(Br)cc1)NC(=O)[C@H](CCCCN)NC(=O)[C@H](CO)NC(=O)[C@H](CO)NC(=O)OCc1ccccc1` (Cbz-SSK[Phe(4-Br)]L-aldehyde), in assay [1], the Ki (commonly a dissociation constant, usually derived from enzyme kinetics or from competition with a known ligand) is more than 500 µM.
Still for that read-out and setting: to `CC(C)C[C@@H](C=O)NC(=O)[C@H](CC(C)C)NC(=O)[C@H](CCC(N)=O)NC(=O)[C@H](CO)NC(=O)[C@H](CO)NC(=O)OCc1ccccc1` (Cbz-SSQLL-aldehyde) belongs 3.9 µM.
On the same count and under the same terms, the result for `CC(C)C[C@@H](C=O)NC(=O)[C@H](CC(C)C)NC(=O)[C@H](C)N(C(=O)[C@H](CO)NC(=O)[C@H](CO)NC(=O)OCc1ccccc1)C1CCCCC1` (Cbz-SS[N(cHex)Ala]LL-aldehyde) reads 13.1 µM; that for `CC(C)C[C@@H](C=O)NC(=O)[C@H](CO)NC(=O)[C@H](CCCCN)NC(=O)[C@H](CO)NC(=O)[C@H](CO)NC(=O)OCc1ccccc1` (Cbz-SSKSL-aldehyde), more than 50 µM; that for `CC(C)C[C@@H](C=O)NC(=O)[C@H](CC(=O)O)NC(=O)[C@H](CCCCN)NC(=O)[C@H](CO)NC(=O)[C@H](CO)NC(=O)OCc1ccccc1` (Cbz-SSKDL-aldehyde), more than 1000 µM.
Turning to `CC(C)C[C@@H](C=O)NC(=O)[C@H](CC(C)C)NC(=O)[C@@H]1CCCN1C(=O)[C@H](CO)NC(=O)[C@H](CO)NC(=O)OCc1ccccc1` (Cbz-SSPLL-aldehyde), the Ki in assay [1] was more than 1000 µM.
The same measure, in the same setting: to `CC[C@H](C)C[C@H](NC(=O)[C@H](CCCCN)NC(=O)[C@H](CO)NC(=O)[C@H](CO)NC(=O)OCc1ccccc1)C(=O)N[C@H](C=O)CC(C)C` (Cbz-SSK[hIle]L-aldehyde) belongs 37.4 µM; to `CC(C)C[C@@H](C=O)NC(=O)[C@H](C)N(C(=O)[C@H](CCCCN)NC(=O)[C@H](CO)NC(=O)[C@H](CO)NC(=O)OCc1ccccc1)C1CCCCC1` (Cbz-SSK[N(cHex)Ala]L-aldehyde), more than 50 µM.
Same read-out and setting: to `CC(C)C[C@@H](C=O)NC(=O)[C@H](CCC(N)=O)NC(=O)[C@H](CCCCN)NC(=O)[C@H](CO)NC(=O)[C@H](CO)NC(=O)OCc1ccccc1` (Cbz-SSKQL-aldehyde) belongs 21.8 µM; to `CC(C)C[C@@H](C=O)NC(=O)[C@H](C)N(C(=O)[C@H](CCCCN)NC(=O)[C@H](CO)NC(=O)[C@H](CO)NC(=O)OCc1ccccc1)c1ccc2ccccc2c1` (Cbz-SSK[X2]L-aldehyde), more than 100 µM; to `CC(C)C[C@@H](C=O)NC(=O)[C@H](CC(C)C)NC(=O)[C@H](CCC(=O)O)NC(=O)[C@H](CO)NC(=O)[C@H](CO)NC(=O)OCc1ccccc1` (Cbz-SSELL-aldehyde), more than 1000 µM.
On the same count and under the same terms, to `CC(C)C[C@@H](C=O)NC(=O)CNC(=O)[C@H](CCCCN)NC(=O)[C@H](CO)NC(=O)[C@H](CO)NC(=O)OCc1ccccc1` (Cbz-SSKGL-aldehyde) belongs more than 1000 µM.
For the molecule `CC(C)C[C@H](NC(=O)[C@H](CC(C)C)NC(=O)[C@H](CCCCN)NC(=O)[C@H](CO)NC(=O)[C@H](CO)NC(=O)OCc1ccccc1)B(O)O` (Cbz-SSKL-boroLeu), in assay [2], the Ratio Ki stood at 60.
In turn, `CC(C)C[C@@H](C=O)NC(=O)[C@H](CCCCN)NC(=O)[C@H](CCCCN)NC(=O)[C@H](CO)NC(=O)[C@H](CO)NC(=O)OCc1ccccc1` (Cbz-SSKKL-aldehyde) yielded a Ki in assay [1] of more than 50 µM.
Same read-out and setting: the result for `CC(C)C[C@@H](C=O)NC(=O)CN(C(=O)[C@H](CCCCN)NC(=O)[C@H](CO)NC(=O)[C@H](CO)NC(=O)OCc1ccccc1)c1ccccc1` (Cbz-SSK[NPhGly]L-aldehyde) reads more than 50 µM; that for `CSCC[C@H](NC(=O)[C@H](CO)NC(=O)[C@H](CO)NC(=O)OCc1ccccc1)C(=O)N[C@@H](CC(C)C)C(=O)N[C@H](C=O)CC(C)C` (Cbz-SSMLL-aldehyde), 7.5 µM.
Same read-out and setting: to `CC(C)C[C@@H](C=O)NC(=O)[C@H](CSC(C)(C)C)NC(=O)[C@H](CCCCN)NC(=O)[C@H](CO)NC(=O)[C@H](CO)NC(=O)OCc1ccccc1` (Cbz-SSKC(tBu)L-aldehyde) belongs more than 50 µM.
On the same count and under the same terms, the result for `CC(C)C[C@@H](C=O)NC(=O)[C@H](CC(C)C)NC(=O)[C@@H](NC(=O)[C@H](CO)NC(=O)[C@H](CO)NC(=O)OCc1ccccc1)[C@@H](C)O` (Cbz-SSTLL-aldehyde) reads 43.8 µM.
The molecule `CC(C)C[C@@H](C=O)NC(=O)[C@@H](NC(=O)[C@H](CCCCN)NC(=O)[C@H](CO)NC(=O)[C@H](CO)NC(=O)OCc1ccccc1)C(C)C` (Cbz-SSKVL-aldehyde) had a Ki in assay [1] of more than 50 µM.
Still for that read-out and setting: the result for `CC(C)C[C@@H](C=O)NC(=O)[C@H](CC(C)C)NC(=O)[C@H](CC[S+](C)[O-])NC(=O)[C@H](CO)NC(=O)[C@H](CO)NC(=O)OCc1ccccc1` (stereo partly specified) (Cbz-SS[Met(O)]LL-aldehyde) reads 25.9 µM.
`CC(C)C[C@@H](C=O)NC(=O)[C@H](C)NC(=O)[C@H](CCCCN)NC(=O)[C@H](CO)NC(=O)[C@H](CO)NC(=O)OCc1ccccc1` (Cbz-SSKAL-aldehyde) gave a Ki in assay [1] of more than 100 µM.
Same read-out and setting: the result for `CC(C)C[C@@H](C=O)NC(=O)[C@H](CC(C)C)NC(=O)CNC(=O)[C@H](CO)NC(=O)[C@H](CO)NC(=O)OCc1ccccc1` (Cbz-SSGLL-aldehyde) reads more than 1000 µM.
`CC(C)C[C@@H](C=O)NC(=O)[C@H](Cc1ncc[nH]1)NC(=O)[C@H](CCCCN)NC(=O)[C@H](CO)NC(=O)[C@H](CO)NC(=O)OCc1ccccc1` (Cbz-SSK[Ala(imidazol-2-yl)]L-aldehyde) displayed a Ki in assay [1] of 18.6 µM.
Still for that read-out and setting: to `CC(C)C[C@@H](C=O)NC(=O)[C@@H]1CCCN1C(=O)[C@H](CCCCN)NC(=O)[C@H](CO)NC(=O)[C@H](CO)NC(=O)OCc1ccccc1` (Cbz-SSKPL-aldehyde) belongs more than 500 µM; to `CC(C)C[C@@H](C=O)NC(=O)[C@@H]1[C@H](O)CCN1C(=O)[C@H](CCCCN)NC(=O)[C@H](CO)NC(=O)[C@H](CO)NC(=O)OCc1ccccc1` (Cbz-SSK[Pro(3R-OH)]L-aldehyde), more than 500 µM; to `CC(C)C[C@@H](C=O)NC(=O)[C@H](CC(C)C)NC(=O)[C@H](CC(N)=O)NC(=O)[C@H](CO)NC(=O)[C@H](CO)NC(=O)OCc1ccccc1` (Cbz-SSNLL-aldehyde), 18.2 µM.
